Measured values from paper PMC7734798 (ACS Medicinal Chemistry Letters, 2020).
Like-named read-outs stand apart in the source and are kept apart here.

Columns and labels:
[1] = system: primary rat cerebellar granule neurons (CGNs); details: for cell survival/death in CGNs, % mean ± SE of controls (MTT): 24 h treatment; for neurotoxicity profile in CGNs (in words): 5-50 μM, 24 h
[2] = Brain stability / hydrolysis kinetics in rat brain homogenate (LC-DAD-MS/MS); assay type: in vitro ADME; details: 37 °C; for hydrolysis in rat brain homogenate in presence of FAAH inhibitor PF-3845: 5 μM PF-3845; for time to total disappearance of starting compound in rat brain homogenate / half-life at 1 µg/mL: absence of FAAH inhibitor; for half-life at 1 µg/mL: rat, brain homogenate
Procedure: We anticipated that, once they entered into the brain, conjugates would be hydrolyzed to the individual components by intracellular metabolic enzymes processing fatty acid derivatives (e.g., FAAH).[9],[17] Thus, the stability of 1 and 2 was evaluated by LC-DAD-MS/MS analysis of rat brain homogenate incubated with the conjugates, which was sampled at regular intervals over 1 h. To obtain initial clues on the implication of FAAH enzymes in hydrolysis, the assays were performed in the absence and presence of 5 μM FAAH inhibitor PF-3845.[9]
(§1) Velp (Usmate, Italy) RX3 vortex mixer and an Elma (Singen, Germany) Sonic T310 Trans ultrasonic […]
Chromatographic runs were obtained on an Agilent (Palo Alto, Ca, US) ZORBAX SB-C18 column (50 × 2.1 mm I.D., 3.5 µm particles), maintained at room temperature and equipped with a guard column. The mobile phase was a mixture of 0.1% aqueous formic acid (A) and acetonitrile (B), flowing at a constant rate of 0.3 mL/min. The mobile phase was set in isocratic mode with A:B ratio of (65:35, V:V); the two components of the mobile phase were filtered through Sartorius (Göttingen, Germany) membrane filters (47 mm diameter, polyamide, 0.2 µm pore size) and degassed by an ultrasonic bath. The injection volume was 10 μL. For compound purity, Total Ion Current (TIC) mode was used and DAD chromatograms were checked at 200 nm and 540 nm. For compound stability and hydrolysis studies, multiple reaction monitoring (MRM) acquisition mode was set up for both compounds 1 and 2, by flow-injection analysis directly in the MS source, in order to optimize ionization parameters and to select two exclusive MRM m/z transitions for each analyte, exploited for quantitative purposes and for qualitative confirmation, respectively.
Sample analysis and method validation […]
For compound stability and hydrolysis studies, after setting up MRM acquisition mode for both 1 and 2 as described previously, the LC-MS/MS method was coupled to an optimized sample preparation protocol to be applied to biological matrices, namely rat plasma and rat brain homogenate. Briefly, for both matrices, 1-mL sample was brought to 37±0.5°C by means of a thermostatted water bath.
Then, 50µL of analyte working solution was added to the matrix sample in order to obtain a final […]
concentration of 1 µg/mL. […]
plasma) and hydrolysis (in brain homogenate). Then, at regular intervals (5, 10, 15, 20, 25, 30, 45, 60 min) a 50-µL aliquot was sampled from the vial, added with 50 µL of ice-cold ACN and centrifuged for 5 min at 4500 rpm at 5°C. The resulting supernatant was subjected to an original miniaturized extraction procedure, based on microextraction by packed sorbent (MEPS), in order to purify the samples from potential interfering signals deriving from the matrices. The solution obtained after MEPS procedure was directly injected into the LC-MS/MS system under the optimized conditions previously described. Compound quantitation was obtained by integrating peak areas obtained from sample analysis and by interpolation on the linearity curve of each analyte. All analyses were carried out in triplicate and results were then expressed as % of remaining compound with respect to that assessed at t0 (100%), plotted against the defined time points.
In order to be applied for stability and hydrolysis studies, the MEPS-LC-MS/MS method was fully validated on both plasma and brain homogenate samples fortified with known amounts of compounds 1 and 2, pretreated and analyzed right after the addition of analyte working solutions. Method validation was performed according to the main international guidelines [ICH Harmonised Tripartite Guideline. Validation of Analytical Procedures: Text and Methodology Q2(R1); International Conference on Harmonisation of Technical] in terms of linearity (including limit of detection, LOD and limit of quantitation, LOQ), precision, accuracy, extraction yield and matrix effect.

[3] = Rat plasma stability assay (LC-DAD-MS/MS); assay type: in vitro ADME; details: 1 h of incubation at 37 °C
Procedure: Our aim was to develop plasma-stable conjugates that would be hydrolyzed in the brain. Selective localized hydrolysis of conjugates 1 and 2 would permit a CNS-targeted profile and less side effects. Thus, plasma stability is an important pharmacokinetic prerequisite for 1 and 2. As reported by stability assays performed by LC-DAD-MS/MS analysis (Figure 3), conjugates 1 and 2 are stable for more than 85% after 1 h of incubation at 37 °C in rat plasma. […] The mean plasma remaining fraction of the two conjugates after 1 h of incubation was compared by means of t test and a statistically relevant difference (p < 0.01) was observed.
as §1
Chromatographic runs were obtained on an Agilent (Palo Alto, Ca, US) ZORBAX SB-C18 column (50 × 2.1 mm I.D., 3.5 µm particles), maintained at room temperature and equipped with a guard column. […] For compound stability and hydrolysis studies, multiple reaction monitoring (MRM) acquisition mode was set up for both compounds 1 and 2, by flow-injection analysis directly in the MS source, in order to optimize ionization parameters and to select two exclusive MRM m/z transitions for each analyte, exploited for quantitative purposes and for qualitative confirmation, respectively. […]

Compound	cell survival/death in CGNs, % mean ± SE of controls (MTT) ([1]; 5 μM) [%]	cell survival/death in CGNs, % mean ± SE of controls (MTT) ([1]; 10 μM) [%]	cell survival/death in CGNs, % mean ± SE of controls (MTT) ([1]; 25 μM) [%]	cell survival/death in CGNs, % mean ± SE of controls (MTT) ([1]; 50 μM) [%]	neurotoxicity profile in CGNs (in words) [1]	hydrolysis in rat brain homogenate in presence of FAAH inhibitor PF-3845 [2]	time to total disappearance of starting compound in rat brain homogenate [2] [h]	half-life at 1 µg/mL [2] [min]	percentage remaining upon incubation in rat plasma [3] [%]
CC/C=C\C/C=C\C/C=C\CCCCCCCC(=O)NCCOC(=O)C(CCC)CCC [compound 2]	97 ± 16	110 ± 3	96 ± 15	85 ± 14	low neurotoxicity profile	blocks the hydrolysis of both 1 and 2 to a large extent	≤ 1	~16	85
CC/C=C\C/C=C\C/C=C\CCCCCCCC(=O)NCCNC(=O)C(CCC)CCC [compound 1]	98 ± 18	107 ± 3	89 ± 14	99 ± 15	low neurotoxicity profile	blocks the hydrolysis of both 1 and 2 to a large extent	≤ 1	~23	89
